Experimental data reported in the supplement of paper PMC10307832.

Assays:
Test in all cases: relative viability (nuclei count vs DMSO), 5 days (fraction); higher = more cells survive
Gemcitabine + Phenformin = compound: Nc1ccn([C@@H]2O[C@H](CO)[C@@H](O)C2(F)F)c(=O)n1 [Gemcitabine] + N=C(N)NC(=N)NCCc1ccccc1 [Phenformin] (partner 250 µM)
Method in brief: (§1)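 After 5 days of treatment, lung cancer cells in 1536-well plates were fixed and stained in a single step (final 0.05% Triton X-100, 1% formaldehyde, 1 ug/ml Hoechst) and their nuclei counted on 4× images. Treatment had been applied by pin tool the day after seeding as one drug alone or as a fixed anchor-drug dose with five library-drug doses (not always all listed) in √10 steps. Relative viability is the nuclei count of treated wells divided by that of vehicle wells, and values are medians of duplicate plates.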

Gemcitabine + OSI-027 = compound: Nc1ccn([C@@H]2O[C@H](CO)[C@@H](O)C2(F)F)c(=O)n1 [Gemcitabine] + COc1cccc2cc(-c3nc([C@H]4CC[C@H](C(=O)O)CC4)n4ncnc(N)c34)[nH]c12 [OSI-027] (partner 0.5 µM)
Method in brief: as §1

Gemcitabine + Trametinib = compound: Nc1ccn([C@@H]2O[C@H](CO)[C@@H](O)C2(F)F)c(=O)n1 [Gemcitabine] + CC(=O)Nc1cccc(-n2c(=O)n(C3CC3)c(=O)c3c(Nc4ccc(I)cc4F)n(C)c(=O)c(C)c32)c1 [Trametinib] (partner 0.02 µM)
Method in brief: as §1

Gemcitabine + Crizotinib = compound: Nc1ccn([C@@H]2O[C@H](CO)[C@@H](O)C2(F)F)c(=O)n1 [Gemcitabine] + C[C@@H](Oc1cc(-c2cnn(C3CCNCC3)c2)cnc1N)c1c(Cl)ccc(F)c1Cl [Crizotinib] (partner 1 µM)
Method in brief: as §1

Cell Line | relative viability (Gemcitabine + Phenformin; first compound 0.001 µM) | relative viability (Gemcitabine + Phenformin; first compound 0.003162 µM) | relative viability (Gemcitabine + Phenformin; first compound 0.01 µM) | relative viability (Gemcitabine + Phenformin; first compound 0.03162 µM) | relative viability (Gemcitabine + Phenformin; first compound 0.1 µM) | relative viability (Gemcitabine + OSI-027; first compound 0.001 µM) | relative viability (Gemcitabine + OSI-027; first compound 0.003162 µM) | relative viability (Gemcitabine + OSI-027; first compound 0.01 µM) | relative viability (Gemcitabine + OSI-027; first compound 0.03162 µM) | relative viability (Gemcitabine + OSI-027; first compound 0.1 µM) | relative viability (Gemcitabine + Trametinib; first compound 0.001 µM) | relative viability (Gemcitabine + Trametinib; first compound 0.003162 µM) | relative viability (Gemcitabine + Trametinib; first compound 0.01 µM) | relative viability (Gemcitabine + Trametinib; first compound 0.03162 µM) | relative viability (Gemcitabine + Trametinib; first compound 0.1 µM) | relative viability (Gemcitabine + Crizotinib; first compound 0.001 µM) | relative viability (Gemcitabine + Crizotinib; first compound 0.003162 µM) | relative viability (Gemcitabine + Crizotinib; first compound 0.01 µM) | relative viability (Gemcitabine + Crizotinib; first compound 0.03162 µM) | relative viability (Gemcitabine + Crizotinib; first compound 0.1 µM)
NCI-H2023 | 0.35 | 0.327 | 0.192 | 0.0945 | 0.0668 | 0.417 | 0.342 | 0.128 | 0.0817 | 0.0589 | 0.567 | 0.577 | 0.266 | 0.152 | 0.0796 | 0.702 | 0.633 | 0.504 | 0.095 | 0.0687
NCI-H2085 | 0.79 | 0.61 | 0.422 | 0.282 | 0.271 | 0.896 | 0.75 | 0.479 | 0.414 | 0.189 | 0.512 | 0.589 | 0.472 | 0.174 | 0.226 | 0.74 | 0.828 | 0.699 | 0.585 | 0.4
NCI-H2087 | 0.455 | 0.231 | 0.149 | 0.108 | 0.113 | 0.532 | 0.229 | 0.112 | 0.0781 | 0.0817 | 0.191 | 0.204 | 0.141 | 0.121 | 0.0794 | 0.963 | 0.8 | 0.405 | 0.133 | 0.161
NCI-H2126 | 0.504 | 0.422 | 0.399 | 0.358 | 0.216 | 0.733 | 0.596 | 0.609 | 0.447 | 0.279 | 0.59 | 0.57 | 0.514 | 0.418 | 0.305 | 1.04 | 0.999 | 0.968 | 0.644 | 0.41
